The results in this text go back to PubChem BioAssay AID1259407 (Chemical Carcinogenesis Research Information System (CCRIS), 2018).

This series concerns CCRIS mutagenicity, Ames/micronucleus/aberration tests. The experiment in a line: CCRIS mutagenicity studies.
The mark [1] stands for this setting: Test System: AMES SALMONELLA TYPHIMURIUM, Strain/Indicator: TA98, Metabolic Activation: NONE, Method: STANDARD PLATE.
[2] abbreviates: Test System: AMES SALMONELLA TYPHIMURIUM, Strain/Indicator: TA98, Metabolic Activation: RAT, LIVER, S-9, AROCLOR 1254, Method: STANDARD PLATE.
Setting [3] is: Test System: AMES SALMONELLA TYPHIMURIUM, Strain/Indicator: TA100, Metabolic Activation: NONE, Method: STANDARD PLATE.
[4] abbreviates: Test System: AMES SALMONELLA TYPHIMURIUM, Strain/Indicator: TA100, Metabolic Activation: RAT, LIVER, S-9, AROCLOR 1254, Method: STANDARD PLATE.
Setting [5] is: Test System: AMES SALMONELLA TYPHIMURIUM, Strain/Indicator: TA1535, Metabolic Activation: NONE, Method: STANDARD PLATE.
Setting [6] is: Test System: AMES SALMONELLA TYPHIMURIUM, Strain/Indicator: TA1537, Metabolic Activation: NONE, Method: STANDARD PLATE.

The source made the active and inactive calls. How the calls were made is not given here.

Take `Oc1ccc(O)c2c(O)c3ccccc3c(O)c12`: the mutagenic call by setting is: under setting [1], “inactive; negative”; under setting [2], “inactive; negative”; under setting [3], “inactive; negative”; under setting [4], “inactive; negative”; under setting [5], “inactive; negative”; (Test System: AMES SALMONELLA TYPHIMURIUM, Strain/Indicator: TA1535, Metabolic Activation: RAT, LIVER, S-9, AROCLOR 1254, Method: STANDARD PLATE) “inactive; negative”. The mutagenic call is “active; positive” under setting [6]; “active; positive” (Test System: AMES SALMONELLA TYPHIMURIUM, Strain/Indicator: TA1537, Metabolic Activation: RAT, LIVER, S-9, AROCLOR 1254, Method: STANDARD PLATE); “inactive; negative” (Test System: AMES SALMONELLA TYPHIMURIUM, Strain/Indicator: TA1538, Metabolic Activation: RAT, LIVER, S-9, AROCLOR 1254, Method: STANDARD PLATE).
For `O=CNc1ccc(Oc2ccc(Cl)cc2Cl)cc1`, the mutagenic call is, setting by setting: under setting [3], “inactive; negative”; (Test System: AMES SALMONELLA TYPHIMURIUM, Strain/Indicator: TA100, Metabolic Activation: RAT, LIVER, S-9, KANECLOR 500, Method: STANDARD PLATE) “active; positive”.
Turning to `ClC1=C(Cl)[C@]2(Cl)[C@@H]3[C@H]4C[C@H]([C@@H]5O[C@H]45)[C@@H]3[C@@]1(Cl)C2(Cl)Cl`, the mutagenic call was “inactive; negative” (Test System: AMES SALMONELLA TYPHIMURIUM, Strain/Indicator: TA97, Metabolic Activation: NONE, Method: STANDARD PLATE); “inactive; negative” (Test System: AMES SALMONELLA TYPHIMURIUM, Strain/Indicator: TA97, Metabolic Activation: RAT, LIVER, S-9, AROCLOR 1254, Method: STANDARD PLATE); “inactive; negative” (Test System: AMES SALMONELLA TYPHIMURIUM, Strain/Indicator: TA98, Metabolic Activation: HAMSTER, LIVER, S-9, AROCLOR 1254 (10%), Method: PREINCUBATION); “inactive; negative” (Test System: AMES SALMONELLA TYPHIMURIUM, Strain/Indicator: TA98, Metabolic Activation: NONE, Method: PREINCUBATION); “inactive; negative” under setting [1]; “inactive; negative” (Test System: AMES SALMONELLA TYPHIMURIUM, Strain/Indicator: TA98, Metabolic Activation: RAT, LIVER, S-9, AROCLOR 1254 (10%), Method: PREINCUBATION). Besides, the mutagenic call was “inactive; negative” under setting [2]; “inactive; negative” (Test System: AMES SALMONELLA TYPHIMURIUM, Strain/Indicator: TA100, Metabolic Activation: HAMSTER, LIVER, S-9, AROCLOR 1254 (10%), Method: PREINCUBATION); “inactive; negative” (Test System: AMES SALMONELLA TYPHIMURIUM, Strain/Indicator: TA100, Metabolic Activation: NONE, Method: PREINCUBATION); “inactive; negative” under setting [3]; “inactive; negative” (Test System: AMES SALMONELLA TYPHIMURIUM, Strain/Indicator: TA100, Metabolic Activation: RAT, LIVER, S-9, AROCLOR 1254 (10%), Method: PREINCUBATION); “inactive; negative” under setting [4]. Besides, the mutagenic call runs as follows: (Test System: AMES SALMONELLA TYPHIMURIUM, Strain/Indicator: TA102, Metabolic Activation: NONE, Method: STANDARD PLATE) “inactive; negative”; (Test System: AMES SALMONELLA TYPHIMURIUM, Strain/Indicator: TA102, Metabolic Activation: RAT, LIVER, S-9, AROCLOR 1254, Method: STANDARD PLATE) “inactive; negative”; (Test System: AMES SALMONELLA TYPHIMURIUM, Strain/Indicator: TA1535, Metabolic Activation: HAMSTER, LIVER, S-9, AROCLOR 1254 (10%), Method: PREINCUBATION) “inactive; negative”; (Test System: AMES SALMONELLA TYPHIMURIUM, Strain/Indicator: TA1535, Metabolic Activation: NONE, Method: PREINCUBATION) “inactive; negative”; (Test System: AMES SALMONELLA TYPHIMURIUM, Strain/Indicator: TA1535, Metabolic Activation: RAT, LIVER, S-9, AROCLOR 1254 (10%), Method: PREINCUBATION) “inactive; negative”; (Test System: AMES SALMONELLA TYPHIMURIUM, Strain/Indicator: TA1537, Metabolic Activation: HAMSTER, LIVER, S-9, AROCLOR 1254 (10%), Method: PREINCUBATION) “inactive; negative”. The mutagenic call runs as follows: (Test System: AMES SALMONELLA TYPHIMURIUM, Strain/Indicator: TA1537, Metabolic Activation: NONE, Method: PREINCUBATION) “inactive; negative”; (Test System: AMES SALMONELLA TYPHIMURIUM, Strain/Indicator: TA1537, Metabolic Activation: RAT, LIVER, S-9, AROCLOR 1254 (10%), Method: PREINCUBATION) “inactive; negative”; (Test System: MOUSE LYMPHOMA, Strain/Indicator: L5178Y (TK+/TK-), Metabolic Activation: NONE, Method: SUSPENSION/PLATE) “inactive; negative”; (Test System: MOUSE LYMPHOMA, Strain/Indicator: L5178Y (TK+/TK-), Metabolic Activation: RAT, LIVER, S-9, AROCLOR 1254, Method: SUSPENSION/PLATE) “inactive; negative”.
For the compound `NCCCCCCCCCCC(=O)O`, the mutagenic call is, setting by setting: (End Point: IN VITRO CHROMOSOMAL ABERRATIONS, Test System: CHINESE HAMSTER OVARY CELLS, Metabolic Activation: NONE) “inactive; negative; precipitation occurred at 1000 ug/ml”; (End Point: IN VITRO CHROMOSOMAL ABERRATIONS, Test System: CHINESE HAMSTER OVARY CELLS, Metabolic Activation: RAT, LIVER, S-9, AROCLOR 1254) “inactive; negative; precipitation occurred at 1000 ug/ml”; (Test System: UDS RAT HEPATOCYTES, Strain/Indicator: BROMODEOXYURIDINE INCORP, Metabolic Activation: NONE, Method: FLOW CYTOMETRIC ANALYSIS) “inactive; negative”.
With `CCOCC(O)COc1ccc(NC(=O)CC[S+](C)C)cc1` (configuration not stated), the mutagenic call runs as follows: under setting [1], “inactive; negative”; (Test System: AMES SALMONELLA TYPHIMURIUM, Strain/Indicator: TA98, Metabolic Activation: RAT, LIVER, S-9, Method: STANDARD PLATE) “inactive; negative”; under setting [3], “inactive; negative”; (Test System: AMES SALMONELLA TYPHIMURIUM, Strain/Indicator: TA100, Metabolic Activation: RAT, LIVER, S-9, Method: STANDARD PLATE) “inactive; negative”; under setting [5], “inactive; negative”; (Test System: AMES SALMONELLA TYPHIMURIUM, Strain/Indicator: TA1535, Metabolic Activation: RAT, LIVER, S-9, Method: STANDARD PLATE) “inactive; negative”. Moreover, the mutagenic call is “inactive; negative” under setting [6]; “inactive; negative” (Test System: AMES SALMONELLA TYPHIMURIUM, Strain/Indicator: TA1537, Metabolic Activation: RAT, LIVER, S-9, Method: STANDARD PLATE); “inactive; negative” (Test System: AMES SALMONELLA TYPHIMURIUM, Strain/Indicator: TA1538, Metabolic Activation: NONE, Method: STANDARD PLATE); “inactive; negative” (Test System: AMES SALMONELLA TYPHIMURIUM, Strain/Indicator: TA1538, Metabolic Activation: RAT, LIVER, S-9, Method: STANDARD PLATE); “inactive; negative” (Test System: E. COLI, Strain/Indicator: WP2, Metabolic Activation: NONE, Method: STANDARD PLATE); “inactive; negative” (Test System: E. COLI, Strain/Indicator: WP2, Metabolic Activation: RAT, LIVER, S-9, Method: STANDARD PLATE). For the same compound, the mutagenic call is “inactive; negative” (Test System: E. COLI, Strain/Indicator: WP2 UVRA, Metabolic Activation: NONE, Method: STANDARD PLATE) and “inactive; negative” (Test System: E. COLI, Strain/Indicator: WP2 UVRA, Metabolic Activation: RAT, LIVER, S-9, Method: STANDARD PLATE).
Consider `O=[N+]([O-])c1cc([N+](=O)[O-])c2c3c(c4cccc5ccc1c2c54)CCCC3`, for which the mutagenic call by setting is: under setting [1], “active; positive”; under setting [2], “active; positive”.
